Test results reported in US11330999B2 (MEMORIAL SLOAN KETTERING CANCER CENTER, priority 2017, dated 2022).

Experiments:
[1] = Thermal equilibrium T2 at high field (14.1T), CPMG; type: physicochemical; details: for T2 Value (s) D2O: 95:5 D2O:H2O, 100 mM Tris pD 7.4; for T2 Value (s) H2O: 100% H2O, 100 mM Tris pH 7.4
Method: (§1) [5-^13C]-glutamine (Cambridge Isotope Laboratories), [^13C]-urea (Sigma Aldrich), [^13C, ^15N2]-urea (Sigma Aldrich), [6-^13C]-arginine (Cambridge Isotope Laboratories), [5-^13C, ^15N]-glutamine (24) (24, as described in Example 7) and [6-^13C, ^15N3]-arginine (21, as described in Example 2) were evaluated to determine thermal equilibrium T1 and T2. An aliquot of each compound was dissolved in 95:5 D2O:H2O containing 100 mM Tris pD 7.4 and 100% H2O containing 100 mM Tris pH 7.4. [^13C]-urea and [^13C, ^15N2]-urea were dissolved to a final concentration of 100 mM.
(§2) ^13C NMR spectra for each compound dissolved in 95:5 D2O:H2O and 100% H2O was obtained with a 14.1T ^13C NMR (Bruker, USA). For inversion recovery experiments, 13 to 15 different delay times between the 180° and 90° pulses, spanning 3T1, were sampled. Each spectrum was an average of 3 to 4 scans, and a 5T1 to 6T1 pre-scan wait time was used to allow re-polarization of carbon nuclear spins between scans. T2 values were measured using a Carr-Purcell-Meiboom-Gill (CPMG) sequence for each compound dissolved in 95:5 D2O:H2O and 100% H2O. A 10 ms (or 5 ms ^13C-urea samples) wait-time between 180° pulses was used, and signal was acquired at total echo times spanning 3T2. For both T1- and T2-relaxation curve fitting, spectra were imported into Mnova (Mestrelabs, USA) and the area under the curve (AUC) of the ^13C resonance of interest was integrated. AUC values were exported to Prism 7 (GraphPad Software, USA), plotted against time on the x-axis, and data points were fit to the Bloch equations for T1 and T2.
(§3) When each compound was dissolved in D2O, the exchangeable protons on the nitrogen atoms rapidly exchange with deuterium in the solvent. As described in Table 1, at high field, each compound having protons exchanged with deuterium extended the T1 of ^13C relaxation times directly bonded to —NH or —NH2 residues, respectively. This effect is further illustrated for [6-^13C]-/[6-^13C, ^15N3]-arginine in FIG. 7.

[2] = Hyperpolarized T1 of arginine guanidine-carbon at 1T; type: physicochemical; details: 30° flip angle, 3 s repetition time, average of two
Method: To confirm the reduction of quadrupolar relaxation at the guanidine-carbon by ^15N enrichment, ^13C NMR spectra for unlabeled and [6-^13C, 6-^15N3]-L-Arginine-HCl (21, as described in Example 2) was obtained with a 14.1T ^13C NMR. The full width half max (FWHM) of the guanidine-carbon peak was measured, and the FWHM of the carbon-1 peak was used as an internal standard. For hyperpolarized T1 measurements compound 21 was mixed with 1 equivalent HCl and dissolved to a final concentration of 1.3 M in 2:3 H2O:glycerol with 15 mM of a OX063 radical. The sample was polarized for at least 1 h in a SpinSolve polarizer. […] This was performed twice and the calculated T1 values were averaged.
The FWHM of the guanidine-carbon peak for natural abundance and compound 21 was measured to be 1.4 Hz and 1.0 Hz, respectively, and the FWHM of carbon-1 was 0.9 Hz for both compounds (FIG. 5B).

[3] = Hyperpolarized T1 at 1T after dissolution in buffered H2O or D2O; type: physicochemical; details: for Hyperpolarized T1 Value (s) D2O: dissolution in 100 mM Tris 1 mM EDTA pD 7.4 D2O; for Hyperpolarized T1 Value (s) H2O: dissolution in 100 mM Tris 1 mM EDTA pH 7.4 H2O
Method: Each compound was prepared with a different formulation, as follows: [5-^13C]- and [5-^13C, ^15N]-glutamine was mixed with 1.1 equivalent HCl and dissolved to a final concentration of 1.5 Min H2O:DMSO (65:35). [^13C]— and [^13C, ^15N2]-urea was dissolved to a final concentration of 6M in glycerol. [6-^13C]- and [6-^13C, ^15N3]-arginine was mixed with 1 equivalent HCl and dissolved to a final concentration of 3.2M in H2O. Each of these preparations also contained OX063 radical (General Electric, UK) dissolved to a final concentration of 15 mM. [^13C]—/[^13C, ^15N2]-urea and [6-^13C]-/[6-^13C, ^15N3]-arginine samples were polarized in a 3.35T SpinLab Polarizer (General Electric, UK) for 1.5 hours (0.83K, 93.98 GHz), while: [5-^13C]-/[^13C, ^15N]-glutamine samples were polarized in a 5T SpinLab Polarizer for 2 hours (0.83K, 93.98 GHz). Following polarization, the HP substrate was ejected from the polarizer via rapid dissolution, during which a superheated solution of 100 mM Tris 1 mM EDTA in pH 7.4 H2O or pD 7.4 D2O is run through the sample vial to dissolve the polarized substrate and eject it into a pre-chilled glass vial (−20° C.).

[4] = Thermal equilibrium T1 at high field (14.1T), inversion recovery; type: physicochemical; details: for T1 Value (s) D2O: 95:5 D2O:H2O, 100 mM Tris pD 7.4; for T1 Value (s) H2O: 100% H2O, 100 mM Tris pH 7.4
Method: as §1, §2, §3

[5] = Hyperpolarized T1 measurement of 13C,15N-xanthine at 1T; type: physicochemical; details: mono-exponential decay fit corrected for flip angle
Method: (§4) A preparation containing 0.15-0.2 M [2-^13C, 1,3-^15N2]-3,7-dihydro-1H-purine-2,6-dione (6, as described in Example 1) and the OX063 radical was hyperpolarized using a SPINlab hyperpolarizer. T1 measurements were performed using 1T Magritek Spectrometer. For the acquisition of hyperpolarized spectra, data was acquired with a 5 s repetition time and 15° excitation for a total of 45 s. In vitro enzymatic experiments to evaluate the activity of XO in oxidizing xanthine (XA) to uric acid (UA) using superoxide as a cofactor were performed using 100 mg of mouse liver extract together with a PMS/NADH+ system to generate O^2−. ^13C NMR spectra was acquired using a 14.1T NMR spectrometer.
(§5) Compound 6 was hyperpolarized. The ^13C chemical shift between hyperpolarized XA and hyperpolarized UA was measured and determined to be 0.8 ppm. After dissolution, spectra of compound 6 were obtained and fit to a mono-exponential decay function, correcting for flip angle, to determine the spin-lattice relaxation time. A T1 of 77±1.4 s was measured (FIG. 2).

U251 cells = assay: CellROX green fluorescence microscopy of intracellular ROS; type: cell-based; details: menadione-treated U251 cells, co-incubation for 45 min
Method: Western blots for XO and xanthine transporter were performed using 20 ng of protein extract from 14 cell lines. In vitro fluorescent microscopy using CellROX green was performed in U251 cells to evaluate intracellular reactive oxygen species (ROS) and the effect of xanthine as an ROS scavenger. 14 different cancer cell lines from renal, sarcoma, lung, prostate, breast, pancreatic, oral, epithelial cancer were also screened to evaluate expression of xanthine transporter and XO. In all the cells, a high expression of XO was observed, whereas xanthine transporter was variable between the cell lines, with the largest expression in U251 cells. Therefore, this cell line was used for further in vitro fluorescence experiments (FIG. 3).

Xanthine Oxidase (XO) = biological target: T1, Xanthine Oxidase (XO) (Mus musculus, UniProt Q00519); assay: In vitro oxidation of xanthine by XO in mouse liver extract with O2− (PMS/NADH system), 13C NMR; type: biochemical; details: 100 mg mouse liver extract, in the presence of O2−
T1 construct: from tissue; host or cells: mouse liver extract
Method: as §4, §5

T1 sequence (Q00519 whole entry): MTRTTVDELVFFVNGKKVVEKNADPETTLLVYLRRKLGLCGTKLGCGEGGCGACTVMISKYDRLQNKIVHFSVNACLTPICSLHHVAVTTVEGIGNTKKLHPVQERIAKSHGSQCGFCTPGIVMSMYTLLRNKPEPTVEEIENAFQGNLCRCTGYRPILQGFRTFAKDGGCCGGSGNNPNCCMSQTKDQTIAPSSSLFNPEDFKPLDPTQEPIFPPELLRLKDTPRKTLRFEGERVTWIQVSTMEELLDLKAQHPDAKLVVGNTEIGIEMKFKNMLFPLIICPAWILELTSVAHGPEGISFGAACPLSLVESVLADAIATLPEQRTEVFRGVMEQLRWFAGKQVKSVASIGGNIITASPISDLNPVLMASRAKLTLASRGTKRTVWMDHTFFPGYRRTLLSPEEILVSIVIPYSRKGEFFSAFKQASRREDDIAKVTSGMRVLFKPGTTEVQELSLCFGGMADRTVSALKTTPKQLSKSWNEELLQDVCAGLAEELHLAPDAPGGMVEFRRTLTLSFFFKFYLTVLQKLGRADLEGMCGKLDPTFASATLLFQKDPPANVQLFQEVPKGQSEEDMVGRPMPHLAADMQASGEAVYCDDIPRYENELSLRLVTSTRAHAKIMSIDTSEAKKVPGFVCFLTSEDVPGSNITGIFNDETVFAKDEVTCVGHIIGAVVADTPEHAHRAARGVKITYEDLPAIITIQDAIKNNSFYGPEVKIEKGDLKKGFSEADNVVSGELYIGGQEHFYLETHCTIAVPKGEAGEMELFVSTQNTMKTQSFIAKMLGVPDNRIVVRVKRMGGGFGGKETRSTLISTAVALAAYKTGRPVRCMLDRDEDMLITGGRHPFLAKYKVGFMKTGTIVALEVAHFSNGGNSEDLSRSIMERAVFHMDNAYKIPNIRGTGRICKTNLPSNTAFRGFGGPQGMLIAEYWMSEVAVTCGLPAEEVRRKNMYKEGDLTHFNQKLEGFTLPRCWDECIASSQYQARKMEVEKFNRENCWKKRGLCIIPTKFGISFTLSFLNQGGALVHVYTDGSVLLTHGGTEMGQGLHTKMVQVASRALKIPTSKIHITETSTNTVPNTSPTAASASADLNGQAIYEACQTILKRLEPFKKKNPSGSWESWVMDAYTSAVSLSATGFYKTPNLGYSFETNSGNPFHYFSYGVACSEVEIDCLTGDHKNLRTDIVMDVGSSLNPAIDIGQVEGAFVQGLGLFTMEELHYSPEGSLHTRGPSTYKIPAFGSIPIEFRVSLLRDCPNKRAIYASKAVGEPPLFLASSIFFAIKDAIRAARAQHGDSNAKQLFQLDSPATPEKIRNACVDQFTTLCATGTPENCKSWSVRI

T2 Value (s) D2O [1] | T2 Value (s) H2O [1] | Hyperpolarized T1 Value (s) D2O [3] | T1 Value (s) D2O [4] | T1 Value (s) H2O [4] | T1 (spin-lattice relaxation time) [5] | time to be oxidized in liver extracts (Xanthine Oxidase (XO)) | Hyperpolarized T1 Value (s) H2O [3] | Compound | T1 of the guanidine-carbon [2] | oxidative stress (CellRox fluorescence) (U251 cells)
– | – | – | – | – | 77 ± 1.4 s | less than 10 minutes | – | O=c1[15nH][13c](=O)[15nH]c2nc[nH]c12 [Compound 6, [2-^13C, 1,3-^15N2]-3,7-dihydro-1H-purine-2,6-dione] | – | reduced
4.66 ± 0.67 s | 3.35 ± 0.21 s | 31.2 ± 3.8 s | 12.29 ± 0.32 s | 10.79 ± 0.34 s | – | – | 23.6 ± 2.1 s | N[C@@H](CC[13C]([15NH2])=O)C(=O)O [Compound 24, (5-13C, 5-15N) L-glutamine] | – | –
0.455 ± 0.004 s | 0.354 ± 0.003 s | 34.1 ± 2.5 s | 12.34 ± 0.21 s | 10.66 ± 0.34 s | – | – | 21.8 ± 1.8 s | N[C@@H](CC[13C](N)=O)C(=O)O [Glutamine ^13C, [5-^13C]-glutamine] | – | –

Compound | T2 Value (s) D2O [1] | T2 Value (s) H2O [1] | Hyperpolarized T1 Value (s) D2O [3] | T1 Value (s) D2O [4] | T1 Value (s) H2O [4] | T1 (spin-lattice relaxation time) [5] | time to be oxidized in liver extracts (Xanthine Oxidase (XO)) | Hyperpolarized T1 Value (s) H2O [3] | T1 of the guanidine-carbon [2] | oxidative stress (CellRox fluorescence) (U251 cells)
N=[13C](N)NCCC[C@H](N)C(=O)O [Arginine ^13C, [6-^13C]-arginine] | 0.234 ± 0.004 s | 0.184 ± 0.003 s | 32.1 ± 4.5 s | 9.74 ± 0.32 s | 6.62 ± 0.22 s | – | – | – | could not be measured | –
